Test results taken from patent US4803167A, “Monoclonal antidigoxtin antibodies” (The General Hospital Corporation, priority 1982, dated 1989).
Read-outs that look alike come from different tables or passages of the source.

Legend:
Assay in all cases: Specificity determination, inhibition of [3H]digoxin binding in dextran charcoal RIA
[1] = system: monoclonal anti-digoxin antibody Dig 35-20; set-up: species or system mouse (A/J); conditions: for amount of inhibitor required to give 50% inhibition relative to the amount of digoxin which gave 50% inhibition: inhibition of antibody binding to [3H]digoxin
Experimental: (§1) The specificity of each antidigoxin antibody for related cardiac glycosides was assessed by the inhibition of binding of antibody in the dextran charcoal radioimmunoassay Smith (1972), supra. To a constant amount of H^3 -digoxin (1.5 ng) in 1 ml of buffer is added different amounts ([…]) of various cardiac glycosides: digoxin, digitoxin, digitoxigenin, digoxigenin, acetyl-strophanthidin, ouabain, deslanoside, and endogenous steroids such as chloresterol, cortisol, androsterone, 17-[beta]-estradiol, progesterone, and testosterone. After 5 minutes, a constant amount of anti-digoxin antibody was added and the assay was continued as described above. Comparison among different antidigoxin antibodies with respect to their fine specificity was made by determining the amount of cardiac glycoside required to achieve 50% inhibition relative to that required for cold digoxin.
(§2) Specificity of monoclonal antibody binding site for related cardiac glycosides was examined by means of hapten inhibition experiments in which the binding of monoclonal antibody to H^3 -digoxin was inhibited by cold digoxin and related cardiac glycosides.

[2] = system: monoclonal anti-digoxin antibody Dig 25-54; set-up: species or system mouse (A/J); conditions: for amount of inhibitor required to give 50% inhibition relative to the amount of digoxin which gave 50% inhibition: inhibition of antibody binding to [3H]digoxin
Experimental: as §1, §2

[3] = system: monoclonal anti-digoxin antibody Dig 26-20; set-up: species or system mouse (A/J); conditions: for amount of inhibitor required to give 50% inhibition relative to the amount of digoxin which gave 50% inhibition: inhibition of antibody binding to [3H]digoxin
Experimental: as §1, §2

[4] = system: monoclonal anti-digoxin antibody Dig 26-10; set-up: species or system mouse (A/J); conditions: for amount of inhibitor required to give 50% inhibition relative to the amount of digoxin which gave 50% inhibition: inhibition of antibody binding to [3H]digoxin
Experimental: as §1, §2

[5] = system: monoclonal anti-digoxin antibody Dig 26-30; set-up: species or system mouse (A/J); conditions: for amount of inhibitor required to give 50% inhibition relative to the amount of digoxin which gave 50% inhibition: inhibition of antibody binding to [3H]digoxin
Experimental: as §1, §2

[6] = system: monoclonal anti-digoxin antibody Dig 26-40; set-up: species or system mouse (A/J); conditions: for amount of inhibitor required to give 50% inhibition relative to the amount of digoxin which gave 50% inhibition: inhibition of antibody binding to [3H]digoxin
Experimental: as §1, §2

[7] = system: Sheep Anti-Dig Serum (heterogeneous anti-digoxin antiserum); conditions: inhibition of antibody binding to [3H]digoxin
Experimental: Antisera specific for digoxin was prepared in sheep as previously described by Curd et al, Proc. Nat. Acad. Sci. 65: 2401 (1971). High affinity antidigoxin sheep antisera was used in the clinical RIA for digoxin (described below).
as §1, §2

[8] = highest concentration tested 10^-4 M

Molecule | inhibition of binding of [3H]digoxin by endogenous steroids [1, 8] | inhibition of binding of [3H]digoxin by endogenous steroids [2, 8] | inhibition of binding of [3H]digoxin by endogenous steroids [3, 8] | inhibition of binding of [3H]digoxin by endogenous steroids [4, 8] | inhibition of binding of [3H]digoxin by endogenous steroids [5, 8] | inhibition of binding of [3H]digoxin by endogenous steroids [6, 8] | amount of inhibitor required to give 50% inhibition relative to the amount of digoxin which gave 50% inhibition [1] | amount of inhibitor required to give 50% inhibition relative to the amount of digoxin which gave 50% inhibition [2] | amount of inhibitor required to give 50% inhibition relative to the amount of digoxin which gave 50% inhibition [3] | amount of inhibitor required to give 50% inhibition relative to the amount of digoxin which gave 50% inhibition [4] | amount of inhibitor required to give 50% inhibition relative to the amount of digoxin which gave 50% inhibition [5] | amount of inhibitor required to give 50% inhibition relative to the amount of digoxin which gave 50% inhibition [6] | also measured
4-androstedione |  |  |  |  |  |  |  |  |  |  |  |  | inhibition of binding of [3H]digoxin by endogenous steroids [1]: No significant inhibition; inhibition of binding of [3H]digoxin by endogenous steroids [2]: No significant inhibition; inhibition of binding of [3H]digoxin by endogenous steroids [3]: No significant inhibition; inhibition of binding of [3H]digoxin by endogenous steroids [4]: No significant inhibition; inhibition of binding of [3H]digoxin by endogenous steroids [5]: No significant inhibition; inhibition of binding of [3H]digoxin by endogenous steroids [6]: No significant inhibition
C[C@]12CC[C@@H]3c4ccc(O)cc4CC[C@H]3[C@@H]1CC[C@@H]2O [17-[beta]-estradiol] | No significant inhibition | No significant inhibition | No significant inhibition | No significant inhibition | No significant inhibition | No significant inhibition |  |  |  |  |  |  | 
CC(=O)O[C@H]1CC[C@]2(C=O)[C@H]3CC[C@]4(C)[C@@H](C5=CC(=O)OC5)CC[C@]4(O)[C@@H]3CC[C@]2(O)C1 [Acetylstrophanthidin] |  |  |  |  |  |  | 110 | > 100 | 0.70 | 1.50 | 0.85 | 2.30 | 
C[C@H]1O[C@@H](O[C@H]2CC[C@@]3(C)[C@H](CC[C@@H]4[C@@H]3C[C@@H](O)[C@]3(C)[C@@H](C5=CC(=O)OC5)CC[C@]43O)C2)C[C@H](O)[C@@H]1O[C@H]1C[C@H](O)[C@H](O[C@H]2C[C@H](O)[C@H](O[C@@H]3O[C@H](CO)[C@@H](O)[C@H](O)[C@H]3O)[C@@H](C)O2)[C@@H](C)O1 [Deslanoside] |  |  |  |  |  |  | 3.7 | 4.3 | 1.5 | 2.6 | 1.6 | 2.0 | 
C[C@]12CC[C@H](O)C[C@H]1CC[C@@H]1[C@@H]2CC[C@]2(C)[C@@H](C3=CC(=O)OC3)CC[C@]12O [Digitoxigenin] |  |  |  |  |  |  | 2.7 | 54.0 | 2.2 | 3.7 | 3.6 | 4.0 | amount of inhibitor required to give 50% inhibition relative to the amount of digoxin which gave 50% inhibition [7]: 860.0
C[C@H]1O[C@@H](O[C@H]2[C@@H](O)C[C@H](O[C@H]3[C@@H](O)C[C@H](O[C@H]4CC[C@@]5(C)[C@H](CC[C@@H]6[C@@H]5CC[C@]5(C)[C@@H](C7=CC(=O)OC7)CC[C@]65O)C4)O[C@@H]3C)O[C@@H]2C)C[C@H](O)[C@@H]1O [Digitoxin] |  |  |  |  |  |  | 4.6 | 1.8 | 1.0 | 1.3 | 2.6 | 1.4 | amount of inhibitor required to give 50% inhibition relative to the amount of digoxin which gave 50% inhibition [7]: 152.0; amount of inhibitor required to give 50% inhibition relative to the amount of digoxin which gave 50% inhibition ([7]; listed as digitoxin): 150
C[C@@H]1O[C@@H](O[C@H]2C[C@@H](O)[C@]3(CO)[C@H]4[C@H](O)C[C@]5(C)[C@@H](C6=CC(=O)OC6)CC[C@]5(O)[C@@H]4CC[C@]3(O)C2)[C@H](O)[C@H](O)[C@H]1O [Ouabain] |  |  |  |  |  |  | 333 | > 100 | 53 | 66 | 84 | 78 | amount of inhibitor required to give 50% inhibition relative to the amount of digoxin which gave 50% inhibition [7]: > 10^5
CC(C)CCC[C@@H](C)[C@H]1CC[C@H]2[C@@H]3CC=C4C[C@@H](O)CC[C@]4(C)[C@H]3CC[C@]12C [cholesterol] | No significant inhibition | No significant inhibition | No significant inhibition | No significant inhibition | No significant inhibition | No significant inhibition |  |  |  |  |  |  | 
C[C@]12CCC(=O)C=C1CC[C@@H]1[C@@H]2[C@@H](O)C[C@@]2(C)[C@H]1CC[C@]2(O)C(=O)CO [cortisol] | No significant inhibition | No significant inhibition | No significant inhibition | No significant inhibition | No significant inhibition | No significant inhibition |  |  |  |  |  |  | 
CC(=O)[C@H]1CC[C@H]2[C@@H]3CCC4=CC(=O)CC[C@]4(C)[C@H]3CC[C@]12C [progesterone] | No significant inhibition | No significant inhibition | No significant inhibition | No significant inhibition | No significant inhibition | No significant inhibition |  |  |  |  |  |  | 
C[C@]12CC[C@H]3[C@@H](CCC4=CC(=O)CC[C@@]43C)[C@@H]1CC[C@@H]2O [testosterone] |  |  |  |  |  |  |  |  |  |  |  |  | inhibition of binding of [3H]digoxin by endogenous steroids [1]: No significant inhibition; inhibition of binding of [3H]digoxin by endogenous steroids [2]: No significant inhibition; inhibition of binding of [3H]digoxin by endogenous steroids [3]: No significant inhibition; inhibition of binding of [3H]digoxin by endogenous steroids [4]: No significant inhibition; inhibition of binding of [3H]digoxin by endogenous steroids [5]: No significant inhibition; inhibition of binding of [3H]digoxin by endogenous steroids [6]: No significant inhibition
